Measurements taken from the C3SDB collision cross section collection.
Several values for one entry are separate records, joined by “and”; a condition that tells them apart may be missing. Identical values can stand only once.

Conditions: instrument: DT, single field, calibrated with Agilent tune mix (Agilent)

| collision cross section (N2) ([M+H]+) | collision cross section (N2) ([M-H]-) | SMILES | other results |
| --- | --- | --- | --- |
| 139 Å² | 138.2 Å² | NC(=NCCCC(N)C(=O)O)NO (stereo not drawn) [N-(omega)-Hydroxyarginine] | – |
| – | 129.21 Å² | CC(=O)N[C@@H](CC(=O)O)C(=O)O [N-Acetyl-L-aspartic acid] | collision cross section (N2) ([M+Na]+): 139 Å² |
| – | 144.2 Å² | CC(=O)N[C@@H](Cc1ccccc1)C(=O)O [N-Acetyl-L-phenylalanine] | collision cross section (N2) ([M+Na]+): 149.8 Å² |
| – | – | CC(=O)N[C@@H](CC(=O)O)C(=O)N[C@@H](CCC(=O)O)C(=O)O [N-Acetylaspartylglutamate (NAAG)] | collision cross section (N2) ([M+Na]+): 166.3 Å² |
| – | – | CC(=O)N[C@@H](CC(=O)O)C(=O)N[C@@H](CCC(=O)O)C(=O)O [N-Acetylaspartylglutamate] | collision cross section (N2) ([M-H2O-H]-): 156.77 Å² |
| – | 136.82 Å² | CC(=O)N[C@@H](CCC(N)=O)C(=O)O [N-Acetylglutamine] | collision cross section (N2) ([M+Na]+): 144.4 Å² |
| – | 134.09 Å² | CSCC[C@H](NC=O)C(=O)O [N-Formylmethionine] | – |
| 230.9 Å² | – | NC(=O)c1ccc[n+]([C@@H]2O[C@H](COP(=O)(O)OP(=O)(O)OC[C@H]3O[C@@H](n4cnc5c(N)ncnc54)[C@H](OP(=O)(O)O)[C@@H]3O)[C@@H](O)[C@H]2O)c1 [Nicotinamide adenine dinucleotide phosphate (NADP)] | – |
| – | 228.27 Å² | NC(=O)c1ccc[n+]([C@@H]2O[C@H](COP(=O)(O)OP(=O)(O)OC[C@H]3O[C@@H](n4cnc5c(N)ncnc54)[C@H](OP(=O)(O)O)[C@@H]3O)[C@@H](O)[C@H]2O)c1 [Nicotinamide adenine dinucleotide phosphate] | – |
| 165.2 Å² | – | NC(=O)c1ccc[n+]([C@@H]2O[C@H](COP(=O)([O-])O)[C@@H](O)[C@H]2O)c1 [Nicotinamide ribotide] | – |
| – | 131.99 Å² | NC[C@H](O)c1ccc(O)c(O)c1 [Norepinephrine] | collision cross section (N2) ([M+H-H2O]+): 137.3 Å² and 136.8 Å² |
| – | 121.6 Å² | NCCOP(=O)(O)O [O-Phosphoethanolamine] | – |
| 162.2 Å² | – | N[C@@H](Cc1ccc(OP(=O)(O)O)cc1)C(=O)O [O-Phosphotyrosine] | collision cross section (N2) ([M+Na-2H]-): 149.33 Å² |
| – | 268.72 Å² | CCCCCCCC(=O)SCCNC(=O)CCNC(=O)[C@H](O)C(C)(C)COP(=O)(O)OP(=O)(O)OC[C@H]1O[C@@H](n2cnc3c(N)ncnc32)[C@H](O)[C@@H]1OP(=O)(O)O [Octanoyl-CoA] | – |
| 296.2 Å² | 296.46 Å² | CCCCCCCCCCCCCCCC(=O)SCCNC(=O)CCNC(=O)[C@H](O)C(C)(C)COP(=O)(O)OP(=O)(O)OC[C@H]1O[C@@H](n2cnc3c(N)ncnc32)[C@H](O)[C@@H]1OP(=O)(O)O [Palmitoyl CoA] | – |
| 148.1 Å² | – | CC(C)(CO)[C@@H](O)C(=O)NCCC(=O)O [Pantothenate] | – |
| – | – | O=C(O)c1ccc(O)c(O)c1 [Protocatechuic acid] | collision cross section (N2) ([M+H-H2O]+): 122.3 Å² |
| 150.9 Å² | – | Cc1ncc(COP(=O)(O)O)c(CN)c1O [Pyridoxamine 5'-phosphate] | – |
| 166.7 Å² | 158.98 Å² | O=c1c(O)c(-c2ccc(O)c(O)c2)oc2cc(O)cc(O)c12 [Quercetin] | – |
| – | – | O=C(O)c1cccnc1C(=O)O [Quinolinate] | collision cross section (N2) ([M+H-H2O]+): 130.5 Å² |
| 170.1 Å² | – | CC1=C(/C=C/C(C)=C/C=C/C(C)=C/C=O)C(C)(C)CCC1 [Retinene] | – |
| 188.3 Å² | 184.12 Å² | Cc1cc2nc3c(=O)[nH]c(=O)nc-3n(C[C@H](O)[C@H](O)[C@H](O)CO)c2cc1C [Riboflavin (Vitamin B2)] | – |

| collision cross section (N2) ([M+H]+) | collision cross section (N2) ([M-H]-) | SMILES | other results |
| --- | --- | --- | --- |
| 162.5 Å² | – | CSC[C@H]1O[C@@H](n2cnc3c(N)ncnc32)[C@H](O)[C@@H]1O [S-Methyl-5'-thioadenosine] | – |
| – | 133.01 Å² | O=C(O)CNC(=O)c1ccccc1O [Salicyluric acid] | – |
| 152.8 Å² | – | C[C@H](O)C(=O)C1=Nc2c([nH]c(N)nc2=O)NC1 [Sepiapterin] | collision cross section (N2) ([M-H2O-H]-): 144.47 Å² |
| 131.9 Å² | – | NCCCCNCCCN [Spermidine] | – |
| 188.3 Å² | – | CCCCCCCCCCCCCCCCCC(N)=O [Stearamide] | – |
| 221.1 Å² | – | CCCCCCCCCCCCCCCCCC(=O)O[C@H](CC(=O)[O-])C[N+](C)(C)C [Stearoylcarnitine] | – |
| – | 205.39 Å² | C[C@H](CCC(=O)NCCS(=O)(=O)O)[C@H]1CC[C@H]2[C@@H]3[C@H](O)C[C@@H]4C[C@H](O)CC[C@]4(C)[C@H]3CC[C@]12C [Taurochenodeoxycholate] | collision cross section (N2) ([M+Na]+): 207.4 Å² |
| 204.5 Å² | 204.37 Å² | C[C@H](CCC(=O)NCCS(=O)(=O)O)[C@H]1CC[C@H]2[C@@H]3CC[C@@H]4C[C@H](O)CC[C@]4(C)[C@H]3C[C@H](O)[C@]12C [Taurodeoxycholic acid] | – |
| – | 204.62 Å² | C[C@H](CCC(=O)NCCS(=O)(=O)O)[C@H]1CC[C@H]2[C@@H]3CC[C@@H]4C[C@H](O)CC[C@]4(C)[C@H]3CC[C@]12C [Taurolithocholic acid] | collision cross section (N2) ([M+H-H2O]+): 220.6 Å² |
| – | – | O=C(O)CCCCC1CCSS1 (stereo not drawn) [Thioctic acid] | collision cross section (N2) ([M+H-H2O]+): 133.8 Å² |
| – | – | OC[C@H]1O[C@H](O[C@H]2O[C@H](CO)[C@@H](O)[C@H](O)[C@H]2O)[C@H](O)[C@@H](O)[C@@H]1O [Trehalose] | collision cross section (N2) ([M+Na]+): 174.9 Å² |
| – | 155.16 Å² | CCCCCCCCCCCCC(=O)O [Tridecanoic acid] | – |
| – | 148.87 Å² | CCCCCCCCCCC(=O)O [Undecanoic Acid] | – |
| – | – | O=c1ccn([C@@H]2O[C@H](COP(=O)(O)O)[C@@H](O)[C@H]2O)c(=O)[nH]1 [Uridine 5'-monophosphate] | collision cross section (N2) ([M+Na]+): 171.8 Å² |
| 134.1 Å² | 118.78 Å² | O=C(O)/C=C/c1cnc[nH]1 [Urocanic acid] | – |
| – | 145.32 Å² | O=P(O)(O)OC1O[C@H](CO)[C@@H](O)[C@H](O)[C@H]1O (stereo partly drawn) [a-D-Galactose 1-phosphate] | collision cross section (N2) ([M+Na]+): 157.5 Å² |
| – | – | C[C@]12CC[C@@H]3c4ccc(O)cc4CC[C@H]3[C@@H]1CC[C@@H]2O [beta-Estradiol] | collision cross section (N2) ([M+H-H2O]+): 159.7 Å² |
| – | – | NC(=O)c1ccc[n+]([C@@H]2O[C@H](COP(=O)([O-])O)[C@@H](O)[C@H]2O)c1 [beta-Nicotinamide D-ribonucleotide] | collision cross section (N2) ([M]+): 165.2 Å² |
| 187.7 Å² | – | Nc1nc(=O)c2ncn([C@H]3C[C@H](O)[C@@H](COP(=O)(O)OP(=O)(O)O)O3)c2[nH]1 [dGDP] | – |
| 165.1 Å² | – | CSCC[C@H](NC(=O)CC[C@H](N)C(=O)O)C(=O)O [gamma-Glutamylmethionine] | – |
| – | – | O=C(O)/C=C/c1ccccc1O [trans-2-Hydroxycinnamic acid] | collision cross section (N2) ([M+H-H2O]+): 124.1 Å² |
